# According to patent US20120322661A1, “Organized Liquid Mixture” (priority 2010, published 2012):
# Experiment: Conductivity measurement for micellar entrapment of fomesafen sodium
# Assay type: physicochemical
# Settings: aqueous solution
# Procedure: A series of the experiments were conducted to establish that a combination of a sorbitan ester alkoxylate with a vegetable oil ethoxylate provided a stable micellar solubilization of the water soluble herbicide fomesafen sodium. Studies were also designed to confirm that the fomesafen sodium present within the formulation was partitioned between the micro-domains of the aqueous phase and the micellar oil phase.
# The conductivity of an aqueous solution of fomesafen sodium was measured at different concentrations of fomesafen sodium. The results were plotted on a graph with measured conductivity plotted on Y-axis and the corresponding concentration on the X-axis. It was observed that the conductivity increased with the salt concentration and dropped suddenly above 0.45 g/L. It is believed that at this inflection concentration, fomesafen sodium self-aggregated to form an aggregated structure.
# In another series of experiments, the formulations according to the present invention exemplified by examples 1 and 2 were tested at various concentrations of fomesafen sodium active ingredients and the resulting conductivity was measured. The results were plotted on a graph with measured conductivity plotted on Y-axis and the corresponding concentration on the X-axis. […]
structure (smiles),measurement,value
"CS(=O)(=O)N=C([O-])c1cc(Oc2ccc(C(F)(F)F)cc2Cl)ccc1[N+](=O)[O-].[Na+] [fomesafen sodium, sodium (EZ)-5-(2-chloro-α,α,α-trifluoro-p-tolyloxy)-N-mesyl-2-nitrobenzenecarboximidate]","Concentration above which conductivity dropped suddenly (inflection concentration, self-aggregation)",above 0.45 g/L
